This note sets out measurements from US8853230B2, “Inhibitors of JAK” (Portola Pharmaceuticals, Inc., priority 2009, dated 2014).

What all share (format): biochemical
The target of one assay is T1, JAK1 (Homo sapiens, UniProt P23458).
T1 construct: 5 μl of catalytic domain recombinant Kinase enzyme+Tyr peptide substrate (Invitrogen, Calif.); purchased Invitrogen
Description: Z'-LYTE kinase assay, JAK1 tyrosine phosphorylation activity. The settings on record: read-out: JAK 1 IC50. In outline: (§1)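 Recombinant catalytic-domain kinase was incubated with coumarin/fluorescein-labelled Tyr6 peptide, ATP and compound (1% DMSO final) for 1 h at room temperature. Protease development then ran 1 h at room temperature. Emission ratio at 445/520 nm (excitation 400 nm) gave percent phosphorylation; IC50s came from 4-parameter logistic fits.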

A further assay concerns the target T2, JAK2 (Homo sapiens, UniProt O60674).
T2 construct: 5 μl of catalytic domain recombinant Kinase enzyme+Tyr peptide substrate (Invitrogen, Calif.); purchased Invitrogen
Description: Z'-LYTE kinase assay, JAK2 tyrosine phosphorylation activity. Put shortly: as §1

In a further assay the target is T3, JAK3 (Homo sapiens, UniProt P52333).
T3 construct: 5 μl of catalytic domain recombinant Kinase enzyme+Tyr peptide substrate (Invitrogen, Calif.); purchased Invitrogen
T3 sequence (P52333 822-1111 limits assumed): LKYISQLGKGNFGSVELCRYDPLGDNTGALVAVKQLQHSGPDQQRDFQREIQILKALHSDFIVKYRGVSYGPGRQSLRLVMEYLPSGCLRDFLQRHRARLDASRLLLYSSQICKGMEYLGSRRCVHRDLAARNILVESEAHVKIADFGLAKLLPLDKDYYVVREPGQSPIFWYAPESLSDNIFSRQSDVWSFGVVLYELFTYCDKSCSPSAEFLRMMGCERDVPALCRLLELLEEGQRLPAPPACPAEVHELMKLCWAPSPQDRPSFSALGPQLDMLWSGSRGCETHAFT
Description: Z'-LYTE kinase assay, JAK3 tyrosine phosphorylation activity. In outline: as §1

In the next assay the target is T4, TYK2 (Homo sapiens, UniProt P29597).
T4 construct: 5 μl of catalytic domain recombinant Kinase enzyme+Tyr peptide substrate (Invitrogen, Calif.); purchased Invitrogen
T4 sequence (P29597 897-1176 limits assumed): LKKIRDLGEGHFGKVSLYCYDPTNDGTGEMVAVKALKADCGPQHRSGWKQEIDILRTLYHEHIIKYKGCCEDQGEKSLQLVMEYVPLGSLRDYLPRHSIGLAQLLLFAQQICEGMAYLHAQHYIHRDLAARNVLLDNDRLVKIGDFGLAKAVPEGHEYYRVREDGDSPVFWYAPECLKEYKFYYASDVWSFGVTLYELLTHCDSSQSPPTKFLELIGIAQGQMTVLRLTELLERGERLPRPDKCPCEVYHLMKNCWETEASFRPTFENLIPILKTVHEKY
The assay can be described thus: Z'-LYTE kinase assay, TYK2 tyrosine phosphorylation activity. Put shortly:
as §1

A further assay concerns the target Syk (Homo sapiens, UniProt P43405). Description: Syk IC50 (Table 1; method not given).

Where only a bound is given, the exact number is not on record here.

In general, IC50 refers to the midpoint of a concentration-inhibition curve.

T1 sequence (P23458 875-1153 limits assumed): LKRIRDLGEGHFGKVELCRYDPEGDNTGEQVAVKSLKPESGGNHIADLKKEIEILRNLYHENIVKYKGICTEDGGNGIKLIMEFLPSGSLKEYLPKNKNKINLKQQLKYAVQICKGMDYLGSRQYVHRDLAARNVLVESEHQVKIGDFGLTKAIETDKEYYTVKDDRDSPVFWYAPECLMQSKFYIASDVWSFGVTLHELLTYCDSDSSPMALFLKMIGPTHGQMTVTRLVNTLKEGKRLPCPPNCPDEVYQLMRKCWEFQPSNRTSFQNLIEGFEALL
T2 sequence (O60674 849-1124 limits assumed): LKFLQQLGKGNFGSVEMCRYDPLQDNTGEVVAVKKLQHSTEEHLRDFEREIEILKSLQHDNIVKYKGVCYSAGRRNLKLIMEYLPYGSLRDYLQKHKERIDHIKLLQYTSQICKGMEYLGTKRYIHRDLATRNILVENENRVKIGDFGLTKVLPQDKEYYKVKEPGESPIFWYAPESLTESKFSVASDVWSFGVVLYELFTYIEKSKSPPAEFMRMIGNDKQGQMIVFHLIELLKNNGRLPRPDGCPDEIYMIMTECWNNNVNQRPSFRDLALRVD

With `NC(=O)c1cnc(Nc2cccc(NC(=O)N3CCCC3)c2)nc1NC1CCCC1` [Example 37, 4-(cyclopentylamino)-2-(3-(pyrrolidine-1-carboxamido)phenylamino)pyrimidine-5-carboxamide], the IC50 at JAK1 is 10 to 100 nM; against JAK2, 10 to 100 nM; against JAK3, 1 to 10 nM; at TYK2, 1 to 10 nM; against Syk, over 1000 nM.
Consider `CC(=O)Nc1cccc(Nc2ncc(C(N)=O)c(N[C@@H](C)C(N)=O)n2)c1` [Example 85, (S)-2-(3-acetamidophenylamino)-4-(1-amino-1-oxopropan-2-ylamino)pyrimidine-5-carboxamide], for which the IC50 was 100 to 1000 nM on JAK1; 100 to 1000 nM at JAK2; 10 to 100 nM at JAK3; 10 to 100 nM at TYK2; over 1000 nM against Syk.
As to `CC(=O)Nc1cccc(Nc2ncc(C(N)=O)c(NCC(F)(F)F)n2)c1` [Example 7, 2-(3-acetamidophenylamino)-4-(2,2,2-trifluoroethylamino)pyrimidine-5-carboxamide], the half-maximal inhibitory concentration (IC50) at JAK1 lay in the range of 10 to 100 nM; on JAK2 it was 10 to 100 nM; on JAK3, 1 to 10 nM; against TYK2 it was 1 to 10 nM; against Syk, 100 to 1000 nM.
Take `CC(=O)Nc1cccc(Nc2ncc(C(N)=O)c(N[C@@H]3CCCNC3)n2)c1` [Example 66, (R)-2-(3-acetamidophenylamino)-4-(piperidin-3-ylamino)pyrimidine-5-carboxamide]: the IC50 on JAK1 was 100 to 1000 nM; on JAK2, 100 to 1000 nM; at JAK3 it was 100 to 1000 nM; against TYK2, 100 to 1000 nM; on Syk, over 1000 nM.
For `CC(=O)Nc1cccc(Nc2ncc(C(N)=O)c(N[C@H](CO)Cc3ccccc3)n2)c1` [Example 76, (S)-2-(3-acetamidophenylamino)-4-(1-hydroxy-3-phenylpropan-2-ylamino)pyrimidine-5-carboxamide], the half-inhibitory concentration (IC50) is 100 to 1000 nM at JAK1; 10 to 100 nM against JAK2; 10 to 100 nM on JAK3; 10 to 100 nM on TYK2; over 1000 nM against Syk.
For `CC(=O)N(C)c1cccc(Nc2ncc(C(N)=O)c(NCc3ccccc3)n2)c1` [Example 79, 4-(benzylamino)-2-(3-(N-methylacetamido)phenylamino)pyrimidine-5-carboxamide], the IC50 at JAK1 was 10 to 100 nM; at JAK2, 10 to 100 nM; on JAK3 it was 1 to 10 nM; at TYK2, 10 to 100 nM; against Syk, over 1000 nM.
As to `CC(=O)Nc1cccc(Nc2ncc(C(N)=O)c(NCC(=O)N3CCCC3)n2)c1` [Example 65, 2-(3-acetamidophenylamino)-4-(2-oxo-2-(pyrrolidin-1-yl)ethylamino)pyrimidine-5-carboxamide], the half-inhibitory concentration (IC50) was over 1000 nM at JAK1; 100 to 1000 nM on JAK2; 10 to 100 nM against JAK3; 10 to 100 nM against TYK2; over 1000 nM against Syk.
Regarding `COC(=O)Nc1cccc(Nc2ncc(C(N)=O)c(NCC(F)(F)F)n2)c1` [Example 4, Methyl 3-(5-carbamoyl-4-(2,2,2-trifluoroethylamino)pyrimidin-2-ylamino)phenylcarbamate], the IC50 fell in the range of 10 to 100 nM on JAK1; 10 to 100 nM at JAK2; 10 to 100 nM against JAK3; 10 to 100 nM at TYK2; 100 to 1000 nM against Syk.
Turning to `CC(=O)Nc1cccc(Nc2ncc(C(N)=O)c(NC[C@H](C)c3ccccc3)n2)c1` [Example 81, (R)-2-(3-acetamidophenylamino)-4-(2-phenylpropylamino)pyrimidine-5-carboxamide], the IC50 at JAK1 is 100 to 1000 nM; on JAK2, 10 to 100 nM; at JAK3, 10 to 100 nM; against TYK2, 10 to 100 nM; on Syk it was over 1000 nM.
In the case of `CC(=O)N(C)c1cccc(Nc2ncc(C(N)=O)c(NC(C)C)n2)c1` [Example 77, 4-(isopropylamino)-2-(3-(N-methylacetamido)phenylamino)pyrimidine-5-carboxamide], the IC50 on JAK1 was 100 to 1000 nM; on JAK2, 10 to 100 nM; at JAK3 it was 10 to 100 nM; against TYK2, 10 to 100 nM; against Syk it was over 1000 nM.
Regarding `COCC(=O)N(C)c1cccc(Nc2ncc(C(N)=O)c(NC(C)C)n2)c1` [Example 88, 4-(isopropylamino)-2-(3-(2-methoxy-N-methylacetamido)phenylamino)pyrimidine-5-carboxamide], the IC50 is 10 to 100 nM at JAK1; 10 to 100 nM against JAK2; 10 to 100 nM on JAK3; 10 to 100 nM on TYK2; over 1000 nM against Syk.
Consider `CC(=O)N(C)c1cccc(Nc2ncc(C(N)=O)c(NC3CCCC3)n2)c1` [Example 78, 4-(cyclopentylamino)-2-(3-(N-methylacetamido)phenylamino)pyrimidine-5-carboxamide], for which the concentration for half-maximal inhibition (IC50) is 10 to 100 nM on JAK1; 1 to 10 nM on JAK2; 1 to 10 nM at JAK3; 10 to 100 nM at TYK2; over 1000 nM against Syk.
Take `COCC(=O)N(C)c1cccc(Nc2ncc(C(N)=O)c(NCc3ccccc3)n2)c1` [Example 90, 4-(benzylamino)-2-(3-(2-methoxy-N-methylacetamido)phenylamino)pyrimidine-5-carboxamide]: the IC50 at JAK1 was 10 to 100 nM; at JAK2, 10 to 100 nM; on JAK3, 1 to 10 nM; at TYK2, 10 to 100 nM; on Syk, over 1000 nM.
For the compound `COC(CNc1nc(Nc2cccc(NC(C)=O)c2)ncc1C(N)=O)c1ccccc1` (stereo not drawn) [Example 84, 2-(3-acetamidophenylamino)-4-(2-methoxy-2-phenylethylamino)pyrimidine-5-carboxamide], the IC50 was 10 to 100 nM on JAK1; 10 to 100 nM on JAK2; 1 to 10 nM at JAK3; 10 to 100 nM against TYK2; 100 to 1000 nM against Syk.
Regarding `CC(=O)N(C)c1cccc(Nc2ncc(C(N)=O)c(N[C@H](C)c3ccccc3)n2)c1` [Example 87, (R)-2-(3-(N-methylacetamido)phenylamino)-4-(1-phenylethylamino)pyrimidine-5-carboxamide], the IC50 on JAK1 was 100 to 1000 nM; against JAK2, 1 to 10 nM; on JAK3, 1 to 10 nM; against TYK2 it was 10 to 100 nM; on Syk, over 1000 nM.
In the case of `CC(=O)Nc1cccc(Nc2ncc(C(N)=O)c(NC[C@H](C)O)n2)c1` [Example 82, (S)-2-(3-acetamidophenylamino)-4-(2-hydroxypropylamino)pyrimidine-5-carboxamide], the IC50 on JAK1 lay within 100 to 1000 nM; against JAK2 it was 10 to 100 nM; on JAK3, 10 to 100 nM; against TYK2 it was 10 to 100 nM; at Syk, 100 to 1000 nM.
In the case of `CC(=O)Nc1cccc(Nc2ncc(C(N)=O)c(NCCN3CCOCC3)n2)c1` [Example 80, 2-(3-acetamidophenylamino)-4-(2-morpholinoethylamino)pyrimidine-5-carboxamide], the IC50 at JAK1 was 100 to 1000 nM; against JAK2, 100 to 1000 nM; against JAK3 it was 10 to 100 nM; against TYK2, 10 to 100 nM; on Syk, over 1000 nM.
Consider `CC(=O)Nc1cccc(Nc2ncc(C(N)=O)c(N[C@H](C)c3ccccc3)n2)c1` [Example 71, (R)-2-(3-acetamidophenylamino)-4-(1-phenylethylamino)pyrimidine-5-carboxamide], for which the IC50 was 100 to 1000 nM on JAK1, 10 to 100 nM against JAK2, 1 to 10 nM against JAK3 and over 1000 nM against Syk.
In the case of `CC(=O)Nc1cccc(Nc2ncc(C(N)=O)c(N[C@@H](CO)CC(C)C)n2)c1` [Example 62, (R)-2-(3-acetamidophenylamino)-4-(1-hydroxy-4-methylpentan-2-ylamino)pyrimidine-5-carboxamide], the IC50 was 10 to 100 nM at JAK1, 100 to 1000 nM on JAK2, 10 to 100 nM against JAK3 and over 1000 nM against Syk.
In the case of `COCC(=O)Nc1cccc(Nc2ncc(C(N)=O)c(N[C@@H](C)c3ccccc3)n2)c1` [Example 42, (S)-2-(3-(2-methoxyacetamido)phenylamino)-4-(1-phenylethylamino)pyrimidine-5-carboxamide], the IC50 at JAK1 was 100 to 1000 nM; against JAK2, 100 to 1000 nM; against JAK3, 100 to 1000 nM; at Syk, over 1000 nM.
As for `CC(=O)Nc1cccc(Nc2ncc(C(N)=O)c(NCc3ccc(Cl)cc3)n2)c1` [Example 69, 2-(3-acetamidophenylamino)-4-(4-chlorobenzylamino)pyrimidine-5-carboxamide], the IC50 on JAK1 was 100 to 1000 nM; on JAK2 it was 100 to 1000 nM; on JAK3 it was 10 to 100 nM; at Syk it was over 1000 nM.
For the compound `NC(=O)c1cnc(Nc2cccc(NC(=O)C3CC3)c2)nc1NC1CCCC1` [Example 19, 4-(cyclopentylamino)-2-(3-(cyclopropanecarboxamido)phenylamino)pyrimidine-5-carboxamide], the half-maximal inhibitory concentration (IC50) on JAK1 was 10 to 100 nM; on JAK2, 10 to 100 nM; against JAK3 it was 1 to 10 nM; against Syk, 100 to 1000 nM.
